Source: PubChem BioAssay (NCI)
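All cell lines were grown in 96-well plates and treated with compound for 48 hours. At the TGI there is no net growth.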

Key:
Test in all cases: NCI-60 cell line screen, 48 h
786-0 renal = test system: 786-0 renal
A498 renal = test system: A498 renal
A549 NSCLC = test system: A549 NSCLC
ACHN renal = test system: ACHN renal
CAKI-1 renal = test system: CAKI-1 renal
CCRF-CEM leukemia = test system: CCRF-CEM leukemia
COLO 205 colon = test system: COLO 205 colon
DLD-1 colon = test system: DLD-1 colon
DMS 114 small cell lung = test system: DMS 114 small cell lung
DMS 273 small cell lung = test system: DMS 273 small cell lung
EKVX NSCLC = test system: EKVX NSCLC
HCT-116 colon = test system: HCT-116 colon
HL-60(TB) leukemia = test system: HL-60(TB) leukemia
HOP-18 NSCLC = test system: HOP-18 NSCLC
HOP-62 NSCLC = test system: HOP-62 NSCLC
HOP-92 NSCLC = test system: HOP-92 NSCLC
HT29 colon = test system: HT29 colon
IGROV1 ovarian = test system: IGROV1 ovarian
K-562 leukemia = test system: K-562 leukemia
KM12 colon = test system: KM12 colon
KM20L2 colon = test system: KM20L2 colon
LXFL 529 NSCLC = test system: LXFL 529 NSCLC
M14 melanoma = test system: M14 melanoma
M19-MEL melanoma = test system: M19-MEL melanoma
MALME-3M melanoma = test system: MALME-3M melanoma
MOLT-4 leukemia = test system: MOLT-4 leukemia
NCI-H226 lung = test system: NCI-H226 lung
NCI-H23 lung = test system: NCI-H23 lung
NCI-H460 lung = test system: NCI-H460 lung
NCI-H522 lung = test system: NCI-H522 lung
OVCAR-3 ovarian = test system: OVCAR-3 ovarian
OVCAR-4 ovarian = test system: OVCAR-4 ovarian
OVCAR-5 ovarian = test system: OVCAR-5 ovarian
OVCAR-8 ovarian = test system: OVCAR-8 ovarian
RXF 393 renal = test system: RXF 393 renal
RXF-631 renal = test system: RXF-631 renal
SF-268 CNS = test system: SF-268 CNS
SF-295 CNS = test system: SF-295 CNS
SF-539 CNS = test system: SF-539 CNS
SK-MEL-2 melanoma = test system: SK-MEL-2 melanoma
SK-MEL-28 melanoma = test system: SK-MEL-28 melanoma
SK-MEL-5 melanoma = test system: SK-MEL-5 melanoma
SK-OV-3 ovarian = test system: SK-OV-3 ovarian
SN12C renal = test system: SN12C renal
SNB-19 CNS = test system: SNB-19 CNS
SNB-75 CNS = test system: SNB-75 CNS
SNB-78 CNS = test system: SNB-78 CNS
SR leukemia = test system: SR leukemia
SW-620 colon = test system: SW-620 colon
U251 CNS = test system: U251 CNS
UACC-257 melanoma = test system: UACC-257 melanoma
UO-31 renal = test system: UO-31 renal
HCC-2998 colon = test system: HCC-2998 colon
HCT-15 colon = test system: HCT-15 colon
LOX IMVI melanoma = test system: LOX IMVI melanoma
RPMI-8226 leukemia = test system: RPMI-8226 leukemia
TK-10 renal = test system: TK-10 renal
UACC-62 melanoma = test system: UACC-62 melanoma
XF 498 CNS = test system: XF 498 CNS

Measured: TGI

CCOc1ccc2c(c1)[n+]([O-])c(-c1ccc([N+](=O)[O-])cc1)c(N)[n+]2[O-]
> 100 µM: 786-0 renal | A498 renal | A549 NSCLC | ACHN renal | CAKI-1 renal | CCRF-CEM leukemia | COLO 205 colon | DLD-1 colon | DMS 114 small cell lung | DMS 273 small cell lung | EKVX NSCLC | HCT-116 colon | HL-60(TB) leukemia | HOP-18 NSCLC | HOP-62 NSCLC | HOP-92 NSCLC | HT29 colon | IGROV1 ovarian | K-562 leukemia | KM12 colon | KM20L2 colon | LXFL 529 NSCLC | M14 melanoma | M19-MEL melanoma | MALME-3M melanoma | MOLT-4 leukemia | NCI-H226 lung | NCI-H23 lung | NCI-H460 lung | NCI-H522 lung | OVCAR-3 ovarian | OVCAR-4 ovarian | OVCAR-5 ovarian | OVCAR-8 ovarian | RXF 393 renal | RXF-631 renal | SF-268 CNS | SF-295 CNS | SF-539 CNS | SK-MEL-2 melanoma | SK-MEL-28 melanoma | SK-MEL-5 melanoma | SK-OV-3 ovarian | SN12C renal | SNB-19 CNS | SNB-75 CNS | SNB-78 CNS | SR leukemia | SW-620 colon | U251 CNS | UACC-257 melanoma | UO-31 renal

CC(=O)NC(CCCCN(Cc1ccccc1)C(=O)N(C)N=O)C(=O)NCc1ccccc1 (stereo unspecified)
> 100 µM: 786-0 renal | A498 renal | A549 NSCLC | ACHN renal | CAKI-1 renal | CCRF-CEM leukemia | COLO 205 colon | DLD-1 colon | DMS 114 small cell lung | DMS 273 small cell lung | EKVX NSCLC | HCC-2998 colon | HCT-116 colon | HCT-15 colon | HOP-62 NSCLC | HOP-92 NSCLC | HT29 colon | IGROV1 ovarian | K-562 leukemia | KM12 colon | KM20L2 colon | LOX IMVI melanoma | LXFL 529 NSCLC | M14 melanoma | M19-MEL melanoma | MALME-3M melanoma | MOLT-4 leukemia | NCI-H226 lung | NCI-H23 lung | NCI-H460 lung | NCI-H522 lung | OVCAR-3 ovarian | OVCAR-4 ovarian | OVCAR-5 ovarian | OVCAR-8 ovarian | RPMI-8226 leukemia | RXF 393 renal | RXF-631 renal | SF-268 CNS | SF-295 CNS | SF-539 CNS | SK-MEL-2 melanoma | SK-MEL-28 melanoma | SK-MEL-5 melanoma | SK-OV-3 ovarian | SN12C renal | SNB-19 CNS | SNB-78 CNS | SW-620 colon | TK-10 renal | U251 CNS | UACC-257 melanoma | UACC-62 melanoma | UO-31 renal | XF 498 CNS
86.9 µM: SNB-75 CNS

O=C(c1nc2ccc(Cl)cc2[nH]c1=O)C(O)c1ccco1 (stereo unspecified)
32.2 µM: NCI-H522 lung
37.1 µM: HCT-15 colon
85.1 µM: KM20L2 colon
> 100 µM: 786-0 renal | A549 NSCLC | ACHN renal | CAKI-1 renal | CCRF-CEM leukemia | COLO 205 colon | DLD-1 colon | DMS 114 small cell lung | DMS 273 small cell lung | EKVX NSCLC | HCC-2998 colon | HCT-116 colon | HL-60(TB) leukemia | HOP-18 NSCLC | HOP-92 NSCLC | HT29 colon | IGROV1 ovarian | K-562 leukemia | LOX IMVI melanoma | LXFL 529 NSCLC | M14 melanoma | M19-MEL melanoma | MALME-3M melanoma | MOLT-4 leukemia | NCI-H226 lung | NCI-H23 lung | NCI-H460 lung | OVCAR-3 ovarian | OVCAR-4 ovarian | OVCAR-5 ovarian | RXF 393 renal | RXF-631 renal | SF-268 CNS | SF-295 CNS | SF-539 CNS | SK-MEL-2 melanoma | SK-MEL-28 melanoma | SK-MEL-5 melanoma | SK-OV-3 ovarian | SNB-19 CNS | SNB-75 CNS | SW-620 colon | TK-10 renal | UACC-257 melanoma | UACC-62 melanoma | UO-31 renal

CC(C)(C)c1cc(C#N)c2c(c1)C(=O)OC2(c1ccccc1)c1ccccc1C#N (stereo unspecified)
> 100 µM: 786-0 renal | A498 renal | A549 NSCLC | ACHN renal | CAKI-1 renal | CCRF-CEM leukemia | COLO 205 colon | DLD-1 colon | DMS 114 small cell lung | DMS 273 small cell lung | EKVX NSCLC | HCT-116 colon | HCT-15 colon | HL-60(TB) leukemia | HOP-18 NSCLC | HOP-62 NSCLC | HT29 colon | IGROV1 ovarian | K-562 leukemia | KM12 colon | KM20L2 colon | LOX IMVI melanoma | LXFL 529 NSCLC | M14 melanoma | M19-MEL melanoma | MALME-3M melanoma | MOLT-4 leukemia | NCI-H226 lung | NCI-H23 lung | NCI-H460 lung | NCI-H522 lung | OVCAR-3 ovarian | OVCAR-4 ovarian | OVCAR-5 ovarian | OVCAR-8 ovarian | RXF 393 renal | SF-268 CNS | SF-295 CNS | SF-539 CNS | SK-MEL-2 melanoma | SK-MEL-28 melanoma | SK-OV-3 ovarian | SN12C renal | SNB-19 CNS | SNB-75 CNS | SNB-78 CNS | SR leukemia | SW-620 colon | TK-10 renal | U251 CNS | UACC-257 melanoma | UACC-62 melanoma | UO-31 renal | XF 498 CNS
